Assay [1] concerns Escherichia coli (EC, ATCC 8739). The assay is described as follows: Microbroth dilution assay. In kind it is cell-based. Particulars: ATCC8739. The procedure: (§1) Compounds 1-8 were tested for antimicrobial activity against Staphylococcus aureus (SA, ATCC 25923), methicillin-resistant S. aureus (MRSA, ATCC BAA-41), multidrug-resistant S. aureus (MDRSA, ATCC BAA-44), Enterococcus faecium (EF, ATCC 49032), vancomycin-resistant E. Faecium (VRE, ATCC 700221), and Bacillus subtilis (ATCC 49343) using a modified disk diffusion assay and microbroth liquid dilution assays. For disk diffusion assays, agar plates seeded with suspensions of bacteria were prepared by adding 500 μL of a 24 h culture of bacteria to 100 mL of autoclaved Mueller Hinton II agar and cooled to 55° C. Seeded liquid agar (10 mL) was transferred immediately to square Petri dishes and allowed to cool for 1 h. Control drugs used for each microorganism included kanamycin (50 μg) for S. aureus, and nitrofurantoin (25 μg) for MRSA. Following incubation at 37° C. for 18 h, zones of inhibition were measured. MICso values for compounds 1 and 4-8 were determined using a microbroth dilution assay outlined in the Clinical and Laboratory Standards Institute methods for susceptibility tests for bacteria that grow aerobically. Briefly, single bacterial colonies were used to inoculate 4 mL of Trypticase Soy broth (BD) for overnight growth and inoculum for each were diluted to 5×10^5 CFU/mL using the 0.5 McFarland standard. In a 96 well plate (Costar, round bottom), control antibiotics (oxacillin for SA and MRSA, vancomycin for EF and VRE, chloramphenicol for B. subtilis) or natural product inhibitors were added to Mueller Hinton II broth (for S. aureus, MRSA, and B. subtilis) or 10% brain heart infusion broth (for E. faecium and VRE) in the first column of the well plates, and serially diluted across the plate, reserving wells for a positive growth control (no treatment). 10 μL of diluted bacteria were added to all wells with the exception of those kept for broth blanks (MHII or brain heart infusion broth only). Plates were incubated at 37° C. overnight and read at absorbance 600 nm on a Molecular Devices plate reader. Growth curves were plotted and ICso values obtained using Kalidagraph software.
(§2) Compounds J23 and J24 were tested for antimicrobial activity against Bacillus subtilis (BS, ATCC 49343), Staphylococcus aureus (SA, ATCC 25923), methicillin-resistant S. aureus (MRSA, ATCC BAA-41), multidrug-resistant S. aureus (MDRSA, ATCC BAA-44), Escherichia coli (EC, ATCC 8739), envelope-deficient E. coli (envA-EC; permeable (envA-) BL21(DE3)pLysS E. coli [constructed using standard P1 transduction methodology, utilizing a Tn10transposon linked to the envA1 gene]; Wang et al., J. Biol. Chem. 2003, 278(45):44424-44428), a clinical isolate of S. aureus (UAMS-1; clinical osteomyelitis isolate; Olson et al., PLoS Pathogens 2011, 7(2):e1001287, www.plospathogens.org), and a clinical isolate of MRSA (USA300; the strain USA300-0114 is the predominant cause of U.S. community-associated methicillin resistant S. aureus infections). MIC50 values were determined using a microbroth dilution assay as described in Example 2. E. coli was grown in Mueller Hinton II broth.

The test system of assay [2] is methicillin-resistant S. aureus (MRSA, ATCC BAA-41). The assay is described as follows: Microbroth dilution assay. In kind it is cell-based. Particulars: Staphylococcus aureus. The method, then:
as §1, §2
In general terms: Broth dilution looks for growth in wells or tubes with falling amounts of substance.

The test system of assay [3] is multidrug-resistant S. aureus (MDRSA, ATCC BAA-44). The experiment in a line: Microbroth dilution assay. In kind it is cell-based. Particulars: Staphylococcus aureus, ATCCBAA44, read-out: MIC50 values in μM MDRSA. The method, then:
as §1, §2

For assay [4], the system named is Staphylococcus aureus (SA, ATCC 25923). The assay is described as follows: Microbroth dilution assay. It is filed as cell-based. Particulars: ATCC25923, microbroth dilution. The method, then: as §1, §2
Assay [5] deals with envelope-deficient E. coli (envA-EC). The experiment in a line: Microbroth dilution assay. In kind it is cell-based. Particulars: Escherichia coli, read-out: MIC50 values in μM envA-EC. The procedure:
as §1, §2

Assay [6] relates to clinical isolate of MRSA (USA300). The experiment in a line: Microbroth dilution assay. Particulars: Staphylococcus aureus. It is filed as cell-based. The procedure:
as §1, §2

The subject of assay [7] is Bacillus subtilis (ATCC 49343). The experiment in a line: Microbroth dilution assay. In kind it is cell-based. Particulars: ATCC49343, read-out: MIC50 values in μM BS. The method, then:
as §1, §2

Assay [8] deals with clinical isolate of S. aureus (UAMS-1). The experiment in a line: Microbroth dilution assay. In kind it is cell-based. Particulars: Staphylococcus aureus. The procedure: as §1, §2
In another assay the target is Sa-FtsZ (Staphylococcus aureus, UniProt P0A031). It is filed as biochemical. Particulars: GTPase assay; read-out: FtsZ in vitro IC50 μM Sa-FtsZ.
The next assay concerns the target recombinant E. coli FtsZ (Escherichia coli (strain K12), UniProt P0A9A6). The experiment in a line: FtsZ GTPase assay (malachite green). Particulars: read-out: FtsZ in vitro IC50 μM Ec-FtsZ.

A word on the MIC50: it is an inhibitory concentration at the 50% level, which refers to growth in some studies and to a panel of isolates in others. Broadly, the IC50 is the midpoint of a concentration-inhibition curve.

≈ marks a conversion by molar mass, not a printed value.

recombinant E. coli FtsZ, sequence (P0A9A6 whole entry, looked up): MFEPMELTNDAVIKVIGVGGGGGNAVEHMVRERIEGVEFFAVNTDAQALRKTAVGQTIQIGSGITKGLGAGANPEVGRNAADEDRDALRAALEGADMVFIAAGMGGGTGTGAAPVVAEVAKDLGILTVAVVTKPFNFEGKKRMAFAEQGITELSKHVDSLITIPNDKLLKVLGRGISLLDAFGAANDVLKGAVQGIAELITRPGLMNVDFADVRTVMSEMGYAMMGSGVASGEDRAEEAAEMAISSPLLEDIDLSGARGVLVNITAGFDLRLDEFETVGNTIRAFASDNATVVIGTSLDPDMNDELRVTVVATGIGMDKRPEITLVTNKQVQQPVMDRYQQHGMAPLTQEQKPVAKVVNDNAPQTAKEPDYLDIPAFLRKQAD
Method for Sa-FtsZ: (§3) Solutions were incubated at room temperature for 5 min, followed by addition of 0.25 mM GTP. At the end of a 20-min incubation period, enzyme activity was quenched by addition of 50 μL Malachite Green solution and the wells read at A^625 on an absorbance plate reader.
Method for recombinant E. coli FtsZ: as §3

Consider `COc1cc(C/C=C(/Cl)Cc2cc(O)cc(O)c2)c(OC)cc1Cl` [Compound J23, (E)-5-(2-chloro-4-(4-chloro-2,5-dimethoxyphenyl)but-2-enyl)benzene-1,3-diol], for which the MIC50 in assay [1] was > 270 µM; in assay [2] it was 12 µM (≈ 4.43 µg/mL); in assay [3] it was 12 µM (≈ 4.43 µg/mL); in [4], 12 µM (≈ 4.43 µg/mL); in [5], 120 µM (≈ 44.3 µg/mL); in assay [6], 6 µM (≈ 2.22 µg/mL). In addition, the MIC50 in assay [7] is 19 µM (≈ 7.02 µg/mL); in assay [8], 7.4 µM (≈ 2.73 µg/mL). The IC50 stood at 44 ± 12 µM on Sa-FtsZ and 36 ± 7 µM at recombinant E. coli FtsZ.
Consider `Oc1cc(O)cc(C/C(Cl)=C\Cc2cc(O)c(Cl)cc2O)c1` [Compound J24, (E)-5-(2-chloro-4-(4-chloro-2,5-dihydroxyphenyl)but-2-enyl)-benzene-1,3-diol], for which the MIC50 in assay [1] is > 290 µM; in assay [2], 22 µM (≈ 7.51 µg/mL); in assay [3], 26 µM (≈ 8.87 µg/mL); in [4] it was 18 µM (≈ 6.14 µg/mL); in assay [5] it was 72 µM (≈ 24.6 µg/mL); in assay [7], 11 µM (≈ 3.75 µg/mL). For the same compound, the half-maximal inhibitory concentration (IC50) at Sa-FtsZ was 88 ± 11 µM; at recombinant E. coli FtsZ it was 160 ± 30 µM.

The values are drawn from US9169182B2, “Chrysophaentin analogs that inhibit FtsZ protein” (priority 2011, dated 2015).
